Data: PubChem BioAssay (NCI)
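Grown in 96-well plates, cells were treated for 48 hours with each compound at five concentrations. Insufficient inhibition: endpoint recorded as highest concentration tested. Here, GI50 denotes the concentration required for 50% inhibition of growth. TGI denotes the concentration required for complete inhibition of growth.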

Key:
Test in all cases: DTP human tumour cell line panel, 48 h
ACHN renal = test system: ACHN renal
BT-549 breast = test system: BT-549 breast
SF-268 CNS = test system: SF-268 CNS
OVCAR-8 ovarian = test system: OVCAR-8 ovarian
NCI/ADR-RES ovarian = test system: NCI/ADR-RES ovarian
M14 melanoma = test system: M14 melanoma
SR leukemia = test system: SR leukemia
SK-OV-3 ovarian = test system: SK-OV-3 ovarian
MDA-MB-468 breast = test system: MDA-MB-468 breast
HCT-116 colon = test system: HCT-116 colon
MDA-MB-231 breast = test system: MDA-MB-231 breast
SN12C renal = test system: SN12C renal
OVCAR-3 ovarian = test system: OVCAR-3 ovarian
SF-295 CNS = test system: SF-295 CNS
LOX IMVI melanoma = test system: LOX IMVI melanoma
IGROV1 ovarian = test system: IGROV1 ovarian
HCC-2998 colon = test system: HCC-2998 colon
A498 renal = test system: A498 renal
SF-539 CNS = test system: SF-539 CNS
K-562 leukemia = test system: K-562 leukemia
HCT-15 colon = test system: HCT-15 colon
CCRF-CEM leukemia = test system: CCRF-CEM leukemia
NCI-H23 lung = test system: NCI-H23 lung
KM12 colon = test system: KM12 colon
RXF 393 renal = test system: RXF 393 renal
HOP-92 NSCLC = test system: HOP-92 NSCLC
SNB-75 CNS = test system: SNB-75 CNS
OVCAR-4 ovarian = test system: OVCAR-4 ovarian
TK-10 renal = test system: TK-10 renal

SMILES: CC(C)N=C([Se])NC(=O)c1ccccc1
- GI50 (ACHN renal): 1.92 µM
- TGI (ACHN renal): 3.41 µM
- GI50 (BT-549 breast): 1.61 µM
- TGI (BT-549 breast): 3.55 µM
- GI50 (SF-268 CNS): 2.9 µM
- TGI (SF-268 CNS): 8.27 µM
- GI50 (OVCAR-8 ovarian): 1.88 µM
- TGI (OVCAR-8 ovarian): 3.56 µM
- GI50 (NCI/ADR-RES ovarian): 2.12 µM
- TGI (NCI/ADR-RES ovarian): 4.89 µM
- GI50 (M14 melanoma): 1.84 µM
- TGI (M14 melanoma): 3.65 µM
- GI50 (SR leukemia): 2.06 µM
- TGI (SR leukemia): 5.23 µM
- GI50 (SK-OV-3 ovarian): 0.426 µM
- TGI (SK-OV-3 ovarian): 1.3 µM
- GI50 (MDA-MB-468 breast): 1.72 µM
- TGI (MDA-MB-468 breast): 3.61 µM
- GI50 (HCT-116 colon): 1.88 µM
- TGI (HCT-116 colon): 3.49 µM
- GI50 (MDA-MB-231 breast): 2.67 µM
- TGI (MDA-MB-231 breast): 6.49 µM
- GI50 (SN12C renal): 1.82 µM
- TGI (SN12C renal): 3.29 µM
- GI50 (OVCAR-3 ovarian): 1.97 µM
- TGI (OVCAR-3 ovarian): 3.57 µM
- GI50 (SF-295 CNS): 1.86 µM
- TGI (SF-295 CNS): 5.21 µM
- GI50 (LOX IMVI melanoma): 1.85 µM
- TGI (LOX IMVI melanoma): 3.94 µM
- GI50 (IGROV1 ovarian): 1.76 µM
- TGI (IGROV1 ovarian): 3.49 µM
- GI50 (HCC-2998 colon): 1.92 µM
- TGI (HCC-2998 colon): 3.67 µM
- GI50 (A498 renal): 2.85 µM
- TGI (A498 renal): 8.02 µM
- GI50 (SF-539 CNS): 1.8 µM
- TGI (SF-539 CNS): 3.21 µM
- GI50 (K-562 leukemia): 2.76 µM
- TGI (K-562 leukemia): 8.45 µM
- GI50 (HCT-15 colon): 1.85 µM
- TGI (HCT-15 colon): 3.63 µM
- GI50 (CCRF-CEM leukemia): 3.05 µM
- TGI (CCRF-CEM leukemia): 10.8 µM
- GI50 (NCI-H23 lung): 1.93 µM
- TGI (NCI-H23 lung): 4.13 µM
- GI50 (KM12 colon): 3 µM
- TGI (KM12 colon): 8.39 µM
- GI50 (RXF 393 renal): 1.88 µM
- TGI (RXF 393 renal): 3.68 µM
- GI50 (HOP-92 NSCLC): 1.95 µM
- TGI (HOP-92 NSCLC): 4.36 µM
- GI50 (SNB-75 CNS): 1.69 µM
- TGI (SNB-75 CNS): 3.41 µM
- GI50 (OVCAR-4 ovarian): 1.75 µM
- TGI (OVCAR-4 ovarian): 3.14 µM
- GI50 (TK-10 renal): 1.7 µM
- TGI (TK-10 renal): 3.17 µM
